Two molecules from article PMC12873548, “D-amino acid substitution and cyclization enhance the stability and antimicrobial activity of arginine-rich peptides” (Microbiology, 2026) can be followed below.

One series relates to S. aureus ATCC 12600. As to the kind of experiment: Membrane integrity, PI uptake. The format is cell-based, Staphylococcus aureus. The note with it: S. aureus ATCC 12600, 5 µg ml−1 PI, 1 h. As for the experimental part: (§1) Propidium iodide (PI) uptake was used to assess the permeabilization of the bacterial membrane upon incubation with peptides. E. coli and S. aureus cells, adjusted to an OD600 of 0.5, were placed into a 96-well plate containing 5 mM HEPES buffer (pH 7.4, supplemented with 5 mM glucose) and incubated with 5 µg ml^−1 PI for 15 min. Afterwards, different peptide concentrations were added, and PI uptake was rapidly measured every 10 min over a 1 h period using a Tecan Spark® microplate reader (λex=515 nm, λem=620 nm).

Series [1] concerns E. coli ATCC 25922. Kind of series: Cytoplasmic membrane depolarization, DiSC3(5). Format: cell-based, Escherichia coli. The note with it: peptide at 2× MIC or 1,000 µM, positive control Triton X-100. As to the method:
The dye 3,3′-dipropylthiadicarbocyanine iodide DiSC3(5) was employed to evaluate perturbation of the bacterial membrane by our designed arginine-rich peptides. For this, a black 96-well microtiter plate containing 150 µl E. coli cells (OD600=0.5) in MH broth per well was incubated with 0.5 µM DiSC3(5) in 5 mM HEPES buffer (pH 7.4, supplemented with 5 mM glucose and 0.1 M KCl) for 15 min to allow for fluorescence quenching. Then, 2× MIC or 1 mM peptide was added, and changes in fluorescence were monitored in real-time (λex=622 nm, λem=670 nm) using a microplate reader.

The test system of another series is E. coli. As to the kind of experiment: Intracellular ROS, DCFH-DA. The format is cell-based, Escherichia coli. The note with it: peptides at MIC, 1/2× MIC, 1/4× MIC, 4 h, 37 °C. As for the experimental part:
(§2) Total reactive oxygen species (ROS) was measured using an oxidation-sensitive fluorescent dye, 2′,7′-dichlorodihydrofluorescein diacetate (DCFH-DA). For this assay, E. coli and S. aureus cultures were adjusted to an OD600 of 0.3 in MH broth and exposed to peptides at MIC, 1/2× MIC and 1/4× MIC, or to positive control (5 mM H2O2) for 4 h at 37 °C. Cells were centrifuged at 4,000 r.p.m. for 10 min at 4 °C and resuspended in PBS containing 10 µM DCFH-DA. The suspension was incubated under the same conditions for 30 min. Finally, cells were washed twice with PBS, and 150 µl aliquots were transferred to 96-well plates. Oxidized DCF products were detected using a Tecan Spark® microplate reader with excitation at 485 nm and emission at 530 nm. Additionally, 10 µl of E. coli cells incubated with D-R4F4 at MIC, 1/2×MIC and 1/4×MIC was collected for imaging using an All-in-One Fluorescence Microscope (Keyence, Japan).

Series [2] has as its system E. coli ATCC 25922. As to the kind of experiment: Membrane integrity, PI uptake. The format is cell-based, Escherichia coli. The note with it: E. coli ATCC 25922, 5 µg ml−1 PI, 1 h. As to the method: as §1
The subject of another series is S. aureus. As to the kind of experiment: Intracellular ROS, DCFH-DA. The format is cell-based, Staphylococcus aureus. The note with it: peptides at MIC, 1/2× MIC, 1/4× MIC, 4 h, 37 °C. As to the method:
as §2

In series [3] the target is T1, Sequencing Grade Modified Trypsin (Sus scrofa, UniProt P00761).
T1 construct: purchased Promega
Kind of series: Stability with trypsin by LC-MS. Conditions: 5 µM SGMT trypsin, 50 mM Tris-HCl, 1 mM CaCl2, pH 7.6, 24 h, 37 °C; read-out LC-MS (ESI). Format: in vitro ADME. As to the method: (§3) The antimicrobial activity and structural stability of arginine-rich peptides were evaluated in the presence of human serum (20% and 50 %) and 5 µM Sequencing Grade Modified Trypsin (SGMT, Promega). Briefly, fresh human blood was collected in EDTA tubes and allowed to clot at room temperature for 1 h. Serum was then collected following centrifugation at 2,000 r.p.m. for 10 min at 4 °C. Peptides were incubated with 20%, 50% human serum and 5 µM SGMT in 50 mM Tris-HCl buffer (1 mM CaCl₂, pH 7.6) for 24 h at 37 °C. After the incubation period, the solutions were further incubated with E. coli (ATCC 25922 and O157:H7), P. aeruginosa (PA01, NCTC13437) and S. aureus (ATCC12600), and the MIC was assessed as described in the ‘Antibacterial assessment’ section. Additionally, the samples were analysed using electrospray ionization MS to monitor structural changes based on the molecular weight of the peptides.

In another series the test system is S. aureus (ATCC12600). Format: cell-based, Staphylococcus aureus. As for the experimental part:
The MIC of arginine-based peptides was assessed using the microbroth dilution approach. Our in vitro screening included a panel of Gram-negative bacteria, Escherichia coli (ATCC 25922 and enterohaemorrhagic O157:H7) and Pseudomonas aeruginosa (PA01 and the drug-resistant strain NCTC 13437), and Gram-positive bacteria (Staphylococcus aureus ATCC 12600). Five-millilitre overnight cultures in Lysogeny broth, prepared from single isolated colonies, were diluted to 5×10^6 c.f.u. ml^−1 mid-log phase in Mueller–Hinton (MH) broth. Next, peptide concentrations (0 to 1 mM) were serially diluted twofold in 96-well plates and incubated overnight at 37 °C with the tested bacterial strains. In each case, the MIC was determined as the lowest peptide concentration at which no detectable bacterial growth was observed, employing an absorbance-based assay using a Tecan Spark® multimode plate reader. Subsequently, 10 µl aliquots from each peptide dilution were transferred to MH agar (1.5%) plates to determine the minimum bactericidal concentration (MBC) which was assessed by establishing at which concentration no visible growth of bacteria (assessed via colony formation) on the plate was observed.

A short description of series [4]: Stability in human serum by LC-MS. The format is in vitro ADME. Conditions: human serum (20% and 50%), 24 h, 37 °C; read-out LC-MS (ESI). As for the experimental part:
as §3

Converted amounts (≈) assume the structure as drawn. Non-standard residues stand in square brackets, D forms with d. Residues, ends and D or L forms follow the SMILES beside them. *: point of attachment. NHhexadecyl = CCCCCCCCCCCCCCCCN*

T1 sequence (P00761 9-231): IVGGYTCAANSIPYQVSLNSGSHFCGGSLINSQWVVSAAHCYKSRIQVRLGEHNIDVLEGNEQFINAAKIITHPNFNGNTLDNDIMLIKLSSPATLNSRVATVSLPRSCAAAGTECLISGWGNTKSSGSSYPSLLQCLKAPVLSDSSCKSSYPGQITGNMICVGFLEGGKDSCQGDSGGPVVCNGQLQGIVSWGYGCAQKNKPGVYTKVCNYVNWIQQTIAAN

On to `CCCCCCCCCCCCCCCCNC(=O)[C@H](CCCNC(=N)N)NC(=O)[C@H](CCCNC(=N)N)NC(=O)[C@H](CCCNC(=N)N)NC(=O)[C@@H](N)CCCNC(=N)N` [Peptide R4-C16] (H-RRRR-NHhexadecyl; N-terminus and C-terminus assumed), for which the “PI uptake, membrane integrity” value with S. aureus ATCC 12600 and with E. coli ATCC 25922 [2] was “membrane-disruptive activity” throughout. In addition, in the series on E. coli ATCC 25922 [1], the “Cytoplasmic membrane depolarization, DiSC3(5) fluorescence” value is listed as “significantly higher fluorescence levels compared to the positive control”. Moreover, the “Intracellular ROS levels” value in the series with E. coli and in the series on S. aureus was “highest modulation of ROS levels” each time.
For `N=C(N)NCCC[C@@H](N)C(=O)N[C@@H](CCCNC(=N)N)C(=O)N[C@H](CCCNC(=N)N)C(=O)N[C@@H](CCCNC(=N)N)C(=O)N[C@H](Cc1ccccc1)C(=O)N[C@@H](Cc1ccccc1)C(=O)N[C@H](Cc1ccccc1)C(=O)N[C@@H](Cc1ccccc1)C(=O)O` [D-R4F4] (H-[dR]R[dR]R[dF]F[dF]F-OH), the “Stability with trypsin (LC chromatogram and mass spectrum)” value in series [3] is “appeared at the same retention time in both the absence and presence of proteases”. Moreover, the MBC – broadly, the smallest concentration meeting the test's criterion for killing – in the series with S. aureus (ATCC12600) (ATCC12600) is 250 µM (≈ 308 µg/mL). Moreover, the MIC (commonly the lowest concentration found to suppress growth) against S. aureus (ATCC12600) (ATCC12600, 24 h) was 125 µM (≈ 154 µg/mL). Also, in series [4], the “Stability with serum proteases (LC chromatogram and mass spectrum)” value was “appeared at the same retention time in both the absence and presence of proteases”.
